Source: ChEMBL document CHEMBL1201862, “PubChem BioAssay data set” (2004)
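Exposure lasted 48 hours, with cells grown in 96-well plates and compounds tested at five concentrations. Abbreviation: GI50, concentration required for 50% inhibition of growth.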 The source made the active and inactive calls. No stated cut-off is given here; in the data, active = GI50 up to about 1.1 µM and inactive = higher.

Legend:
Experiment in all cases: growth of human tumour cells (NCI), 48 h
KM12 = tested on: KM12
SF-539 = tested on: SF-539
NCI-H226 = tested on: NCI-H226
RPMI-8226 = tested on: RPMI-8226
Malme-3M = tested on: Malme-3M
EKVX = tested on: EKVX
UACC-257 = tested on: UACC-257
SN12C = tested on: SN12C
UACC-62 = tested on: UACC-62
786-0 = tested on: 786-0
CCRF-CEM = tested on: CCRF-CEM
K562 = tested on: K562
HL-60 = tested on: HL-60
IGROV-1 = tested on: IGROV-1
NCI/ADR-RES = tested on: NCI/ADR-RES
MDA-MB-231 = tested on: MDA-MB-231
MDA-MB-435 = tested on: MDA-MB-435
MDA-N = tested on: MDA-N

Measured: GI50

CCOC(=O)C(c1ccsc1)P(=O)(OCC)OCC (centres undefined)
inactive: KM12 13.4 µM | SF-539 14.2 µM | NCI-H226 18.4 µM | RPMI-8226 9.4 µM | Malme-3M 23.2 µM | EKVX 23.9 µM | UACC-257 15.4 µM | SN12C 13.3 µM | UACC-62 8.22 µM | 786-0 16.3 µM

COC(=O)CCC(=O)NC1C2CC3CC(C2)CC1C3 (centres undefined)
inactive: CCRF-CEM > 100 µM | KM12 > 100 µM | SF-539 > 100 µM | RPMI-8226 > 100 µM | Malme-3M > 100 µM | EKVX > 100 µM | K562 > 100 µM | HL-60 > 100 µM | UACC-257 > 100 µM | SN12C > 100 µM | IGROV-1 > 100 µM | UACC-62 > 100 µM | 786-0 > 100 µM

Clc1ccc(-c2nnc3c4nnc(-c5ccc(Cl)cc5Cl)n4c4ccccc4n23)c(Cl)c1
inactive: CCRF-CEM > 100 µM | KM12 > 100 µM | SF-539 > 100 µM | RPMI-8226 > 100 µM | Malme-3M > 100 µM | EKVX > 100 µM | K562 > 100 µM | UACC-257 > 100 µM | SN12C > 100 µM | IGROV-1 > 100 µM | UACC-62 > 100 µM | 786-0 82.4 µM

COC(=O)/C(=N\NC(N)=O)C(C#N)c1ccccc1 (centres undefined)
inactive: CCRF-CEM > 100 µM | KM12 > 100 µM | SF-539 > 100 µM | NCI-H226 > 100 µM | RPMI-8226 > 100 µM | Malme-3M > 100 µM | EKVX > 100 µM | K562 > 100 µM | HL-60 > 100 µM | UACC-257 > 100 µM | SN12C > 100 µM | UACC-62 > 100 µM | 786-0 > 100 µM

Cc1c2ccccc2cc2ccc3oc([N+](=O)[O-])cc3c12
inactive: CCRF-CEM > 100 µM | KM12 > 100 µM | SF-539 > 100 µM | RPMI-8226 > 100 µM | Malme-3M > 100 µM | EKVX 81.7 µM | K562 > 100 µM | HL-60 3.93 µM | UACC-257 > 100 µM | SN12C > 100 µM | IGROV-1 > 100 µM | UACC-62 > 100 µM | 786-0 > 100 µM

CC(C)=CCC/C(C)=C/Cc1c(O)c(C)cc2c1[nH]c1cc(O)ccc12
inactive: CCRF-CEM > 25 µM | KM12 > 25 µM | SF-539 > 25 µM | NCI-H226 > 25 µM | RPMI-8226 > 25 µM | Malme-3M > 25 µM | K562 > 25 µM | HL-60 > 25 µM | SN12C > 25 µM | IGROV-1 > 25 µM | UACC-62 > 25 µM | 786-0 > 25 µM

N#CC(C(=O)C(=O)Nc1ccc(Cl)cc1)c1ccccc1 (centres undefined)
inactive: CCRF-CEM > 100 µM | KM12 > 100 µM | SF-539 > 100 µM | NCI-H226 > 100 µM | RPMI-8226 > 100 µM | Malme-3M > 100 µM | EKVX > 100 µM | K562 > 100 µM | HL-60 > 100 µM | UACC-257 > 100 µM | SN12C > 100 µM | IGROV-1 > 100 µM | UACC-62 22.6 µM | 786-0 > 100 µM

COc1ccc(/C=C2\N=C(c3ccccc3)OC2=O)c(OCc2ccccc2)c1
inactive: CCRF-CEM 14.3 µM | KM12 33 µM | SF-539 24 µM | NCI-H226 53.2 µM | RPMI-8226 15.8 µM | Malme-3M 39.4 µM | EKVX > 100 µM | K562 32.1 µM | HL-60 40.4 µM | UACC-257 > 10 µM | SN12C > 100 µM | IGROV-1 18.8 µM | UACC-62 19.7 µM | 786-0 20.1 µM

O=C(Cc1nc2ccccc2o1)C(=O)Nc1cccc(Cl)c1
inactive: CCRF-CEM > 100 µM | KM12 > 100 µM | SF-539 > 100 µM | NCI-H226 > 100 µM | Malme-3M > 100 µM | EKVX > 100 µM | K562 > 100 µM | HL-60 > 100 µM | UACC-257 > 100 µM | SN12C > 100 µM | IGROV-1 > 100 µM | UACC-62 > 100 µM | 786-0 > 100 µM

CC1(C)CC(=O)C(/C(=N/NC(=S)NN)C(=O)Nc2nc3ccc([N+](=O)[O-])cc3s2)C(=O)C1
inactive: CCRF-CEM 38.2 µM | KM12 > 100 µM | SF-539 > 100 µM | NCI-H226 55.5 µM | Malme-3M > 100 µM | EKVX > 100 µM | K562 62.1 µM | HL-60 > 100 µM | UACC-257 > 100 µM | SN12C > 100 µM | IGROV-1 > 100 µM | UACC-62 > 100 µM | 786-0 > 100 µM

Cc1nc(=O)n2c(C)n[nH]c2c1C(=O)O
inactive: CCRF-CEM > 100 µM | KM12 > 100 µM | SF-539 > 100 µM | NCI-H226 > 100 µM | RPMI-8226 > 100 µM | Malme-3M > 100 µM | EKVX > 100 µM | K562 > 100 µM | HL-60 > 100 µM | SN12C > 100 µM | IGROV-1 > 100 µM | UACC-62 > 100 µM | 786-0 > 100 µM

CC(C)CC(=O)CC(C)[C@]1(CCCOCc2ccccc2)C(=O)N2CCC3(C[C@@]24CCC[C@H]41)OCCO3 (some centres undefined)
inactive: CCRF-CEM > 10 µM | KM12 > 10 µM | SF-539 > 10 µM | NCI-H226 > 10 µM | RPMI-8226 > 10 µM | EKVX > 10 µM | NCI/ADR-RES > 10 µM | K562 > 10 µM | MDA-MB-231 > 10 µM | HL-60 > 10 µM | SN12C > 10 µM | IGROV-1 > 10 µM | 786-0 > 10 µM | MDA-MB-435 > 10 µM | MDA-N > 10 µM

O=C(C/C(=N\NC(=O)C[n+]1ccccc1)C(=O)Nc1nc2ccc([N+](=O)[O-])cc2s1)CC(c1ccccc1)c1c(O)c2ccccc2oc1=O (centres undefined)
inactive: CCRF-CEM > 100 µM | KM12 > 100 µM | SF-539 > 100 µM | RPMI-8226 > 100 µM | Malme-3M > 100 µM | EKVX > 100 µM | K562 > 100 µM | HL-60 > 100 µM | UACC-257 > 100 µM | SN12C > 100 µM | IGROV-1 > 100 µM | UACC-62 > 100 µM | 786-0 > 100 µM

CC1=C(C(=O)Nc2cc(F)c(F)cc2F)C(c2ccc([N+](=O)[O-])cc2)C(C(=O)Nc2cc(F)c(F)cc2F)=C(C)N1
inactive: CCRF-CEM 16.5 µM | KM12 29.3 µM | SF-539 29.3 µM | NCI-H226 37.8 µM | RPMI-8226 14 µM | Malme-3M 27.2 µM | EKVX 13.9 µM | K562 24.2 µM | HL-60 11.2 µM | UACC-257 28.7 µM | SN12C 40.7 µM | IGROV-1 28.2 µM | 786-0 42.7 µM

Cc1ccc(C(=O)CC2(O)C(=O)Nc3c(C)cc(Cl)cc32)cc1 (centres undefined)
inactive: CCRF-CEM > 100 µM | KM12 > 100 µM | NCI-H226 > 100 µM | RPMI-8226 43.2 µM | Malme-3M > 100 µM | EKVX > 100 µM | K562 86.5 µM | HL-60 59.8 µM | UACC-257 > 100 µM | SN12C > 100 µM | 786-0 > 100 µM

O=C1CCC(=O)C12CCc1ccccc12
inactive: Malme-3M > 100 µM | EKVX > 100 µM | K562 > 10 µM | HL-60 > 100 µM | SN12C > 100 µM | IGROV-1 > 100 µM | UACC-62 > 100 µM | 786-0 > 100 µM

CCOC(=O)C(Cc1c(C=O)[nH]c2ccccc12)(NC(=O)c1ccccc1)C(=O)OCC
inactive: CCRF-CEM 6.87 µM | KM12 10.3 µM | SF-539 16.3 µM | NCI-H226 19.5 µM | RPMI-8226 > 100 µM | Malme-3M 17.7 µM | EKVX 18.5 µM | K562 6.46 µM | HL-60 > 100 µM | UACC-257 16.9 µM | SN12C 13.2 µM | IGROV-1 20.4 µM | 786-0 16.7 µM

c1ccc(CSc2nc3ccccc3nc2-c2cccs2)cc1
inactive: CCRF-CEM 92.9 µM | KM12 > 100 µM | SF-539 > 100 µM | NCI-H226 > 100 µM | RPMI-8226 > 100 µM | Malme-3M > 100 µM | EKVX > 100 µM | K562 > 100 µM | HL-60 > 100 µM | UACC-257 > 100 µM | SN12C > 100 µM | IGROV-1 > 100 µM | 786-0 > 100 µM

Brc1ccc2c(C3CN[C@@H](c4c[nH]c5cc(Br)ccc45)CN3)c[nH]c2c1 (some centres undefined)
inactive: CCRF-CEM 2.65 µM | KM12 1.72 µM | SF-539 3.99 µM | NCI-H226 2.13 µM | RPMI-8226 1.89 µM | Malme-3M 12.2 µM | EKVX 8.97 µM | K562 1.65 µM | HL-60 2.42 µM | UACC-257 11.1 µM | SN12C 5.25 µM | IGROV-1 5.65 µM | UACC-62 4.37 µM | 786-0 2.89 µM

COC(=O)C1=Cc2cc3c(cc2[C@H](c2ccc4c(c2)OCO4)C1C(=O)OC)OCO3 (some centres undefined)
inactive: CCRF-CEM > 100 µM | KM12 67.1 µM | SF-539 > 100 µM | NCI-H226 > 100 µM | RPMI-8226 > 100 µM | Malme-3M > 100 µM | EKVX 46.8 µM | K562 53.5 µM | HL-60 65.6 µM | UACC-257 > 100 µM | SN12C > 100 µM | IGROV-1 1.73 µM | UACC-62 58.6 µM | 786-0 > 100 µM
